Results reported in patent USRE42890E1, “Furazanobenzimidazoles” (Basilea Pharmaceutica AG, priority 2003, dated 2011).

What follows are compounds tested on adherent cells or suspension cells (assay: Hoechst 33342 nuclear staining (fraction of apoptotic nuclei)). Details: H460, conc 0.01 μm.
Format: cell-based
Set-up: key: 0 relating to no activity; 1 relating to weak activity comprising less than 70% of the cells; score 2 relating to strong activity comprising more than 70% of the cells
For `N#CCCNc1nonc1-c1nc2ccccc2n1CC(=O)c1ccc([N+](=O)[O-])cc1` [Example 57], the “Hoechst 33342 nuclear staining score” value was 0.

Same assay, conditions: H460, conc 0.1 μm
For `N#CCCNc1nonc1-c1nc2ccccc2n1CC(=O)c1ccc([N+](=O)[O-])cc1` [Example 57], the “Hoechst 33342 nuclear staining score” value was 0.

Same assay, conditions: H460, conc 1 μm
For `N#CCCNc1nonc1-c1nc2ccccc2n1CC(=O)c1ccc([N+](=O)[O-])cc1` [Example 57], the “Hoechst 33342 nuclear staining score” value was 0.

Same assay, conditions: HeLa, conc 0.01 μm
In the case of `Nc1nonc1-c1nc2ccccc2n1CC(=O)c1cccc2ccccc12` [Example 41], the “Hoechst 33342 nuclear staining score” value is reported as 0.
For `COc1ccc(OCn2c(-c3nonc3N)nc3ccccc32)cc1` [Example 90], the “Hoechst 33342 nuclear staining score” value was 0.
In the case of `N#CCCNc1nonc1-c1nc2ccccc2n1CC(=O)c1ccc([N+](=O)[O-])cc1` [Example 57], the “Hoechst 33342 nuclear staining score” value is reported as 0.

Same assay, conditions: HeLa, conc 0.1 μm
In the case of `Nc1nonc1-c1nc2ccccc2n1CC(=O)c1cccc2ccccc12` [Example 41], the “Hoechst 33342 nuclear staining score” value is reported as 0.
In the case of `COc1ccc(OCn2c(-c3nonc3N)nc3ccccc32)cc1` [Example 90], the “Hoechst 33342 nuclear staining score” value is reported as 0.
In the case of `N#CCCNc1nonc1-c1nc2ccccc2n1CC(=O)c1ccc([N+](=O)[O-])cc1` [Example 57], the “Hoechst 33342 nuclear staining score” value is reported as 0.

Same assay, conditions: HeLa, conc 1 μm
In the case of `Nc1nonc1-c1nc2ccccc2n1CC(=O)c1cccc2ccccc12` [Example 41], the “Hoechst 33342 nuclear staining score” value is reported as 2 (score 2 relating to strong activity comprising more than 70% of the cells).
For `COc1ccc(OCn2c(-c3nonc3N)nc3ccccc32)cc1` [Example 90], the “Hoechst 33342 nuclear staining score” value was 1 (1 relating to weak activity comprising less than 70% of the cells).
In the case of `N#CCCNc1nonc1-c1nc2ccccc2n1CC(=O)c1ccc([N+](=O)[O-])cc1` [Example 57], the “Hoechst 33342 nuclear staining score” value is reported as 2 (score 2 relating to strong activity comprising more than 70% of the cells).

Same assay, conditions: Jily, conc 0.01 μm
`Nc1nonc1-c1nc2ccccc2n1CC(=O)c1cccc2ccccc12` [Example 41] was tested, and the “Hoechst 33342 nuclear staining score” value was 0.
In the case of `COc1ccc(OCn2c(-c3nonc3N)nc3ccccc32)cc1` [Example 90], the “Hoechst 33342 nuclear staining score” value is reported as 0.
In the case of `N#CCCNc1nonc1-c1nc2ccccc2n1CC(=O)c1ccc([N+](=O)[O-])cc1` [Example 57], the “Hoechst 33342 nuclear staining score” value is reported as 0.

Same assay, conditions: Jily, conc 0.1 μm
In the case of `Nc1nonc1-c1nc2ccccc2n1CC(=O)c1cccc2ccccc12` [Example 41], the “Hoechst 33342 nuclear staining score” value is reported as 0.
`COc1ccc(OCn2c(-c3nonc3N)nc3ccccc32)cc1` [Example 90] was tested, and the “Hoechst 33342 nuclear staining score” value was 0.
With `N#CCCNc1nonc1-c1nc2ccccc2n1CC(=O)c1ccc([N+](=O)[O-])cc1` [Example 57] the “Hoechst 33342 nuclear staining score” value was 0.

Same assay, conditions: Jily, conc 1 μm
In the case of `Nc1nonc1-c1nc2ccccc2n1CC(=O)c1cccc2ccccc12` [Example 41], the “Hoechst 33342 nuclear staining score” value is reported as 2 (score 2 relating to strong activity comprising more than 70% of the cells).
With `COc1ccc(OCn2c(-c3nonc3N)nc3ccccc32)cc1` [Example 90] the “Hoechst 33342 nuclear staining score” value was 1 (1 relating to weak activity comprising less than 70% of the cells).
In the case of `N#CCCNc1nonc1-c1nc2ccccc2n1CC(=O)c1ccc([N+](=O)[O-])cc1` [Example 57], the “Hoechst 33342 nuclear staining score” value is reported as 2 (score 2 relating to strong activity comprising more than 70% of the cells).

Same assay, conditions: Jurkat, conc 0.01 μm
`Nc1nonc1-c1nc2ccccc2n1CC(=O)c1cccc2ccccc12` [Example 41] was tested, and the “Hoechst 33342 nuclear staining score” value was 0.
In the case of `COc1ccc(OCn2c(-c3nonc3N)nc3ccccc32)cc1` [Example 90], the “Hoechst 33342 nuclear staining score” value is reported as 0.
For `N#CCCNc1nonc1-c1nc2ccccc2n1CC(=O)c1ccc([N+](=O)[O-])cc1` [Example 57], the “Hoechst 33342 nuclear staining score” value was 0.

Same assay, conditions: Jurkat, conc 0.1 μm
For `Nc1nonc1-c1nc2ccccc2n1CC(=O)c1cccc2ccccc12` [Example 41], the “Hoechst 33342 nuclear staining score” value was 0.
With `COc1ccc(OCn2c(-c3nonc3N)nc3ccccc32)cc1` [Example 90] the “Hoechst 33342 nuclear staining score” value was 0.
In the case of `N#CCCNc1nonc1-c1nc2ccccc2n1CC(=O)c1ccc([N+](=O)[O-])cc1` [Example 57], the “Hoechst 33342 nuclear staining score” value is reported as 0.

Same assay, conditions: Jurkat, conc 1 μm
`Nc1nonc1-c1nc2ccccc2n1CC(=O)c1cccc2ccccc12` [Example 41] was tested, and the “Hoechst 33342 nuclear staining score” value was 2 (score 2 relating to strong activity comprising more than 70% of the cells).
In the case of `COc1ccc(OCn2c(-c3nonc3N)nc3ccccc32)cc1` [Example 90], the “Hoechst 33342 nuclear staining score” value is reported as 2 (score 2 relating to strong activity comprising more than 70% of the cells).
For `N#CCCNc1nonc1-c1nc2ccccc2n1CC(=O)c1ccc([N+](=O)[O-])cc1` [Example 57], the “Hoechst 33342 nuclear staining score” value was 2 (score 2 relating to strong activity comprising more than 70% of the cells).

Same assay, conditions: MRC5, conc 0.01 μm
In the case of `Nc1nonc1-c1nc2ccccc2n1CC(=O)c1cccc2ccccc12` [Example 41], the “Hoechst 33342 nuclear staining score” value is reported as 0.
For `COc1ccc(OCn2c(-c3nonc3N)nc3ccccc32)cc1` [Example 90], the “Hoechst 33342 nuclear staining score” value was 0.
With `N#CCCNc1nonc1-c1nc2ccccc2n1CC(=O)c1ccc([N+](=O)[O-])cc1` [Example 57] the “Hoechst 33342 nuclear staining score” value was 0.

Same assay, conditions: MRC5, conc 0.1 μm
For `Nc1nonc1-c1nc2ccccc2n1CC(=O)c1cccc2ccccc12` [Example 41], the “Hoechst 33342 nuclear staining score” value was 0.
With `COc1ccc(OCn2c(-c3nonc3N)nc3ccccc32)cc1` [Example 90] the “Hoechst 33342 nuclear staining score” value was 0.
`N#CCCNc1nonc1-c1nc2ccccc2n1CC(=O)c1ccc([N+](=O)[O-])cc1` [Example 57] was tested, and the “Hoechst 33342 nuclear staining score” value was 0.

Same assay, conditions: MRC5, conc 1 μm
With `Nc1nonc1-c1nc2ccccc2n1CC(=O)c1cccc2ccccc12` [Example 41] the “Hoechst 33342 nuclear staining score” value was 0.
`COc1ccc(OCn2c(-c3nonc3N)nc3ccccc32)cc1` [Example 90] was tested, and the “Hoechst 33342 nuclear staining score” value was 1 (1 relating to weak activity comprising less than 70% of the cells).
In the case of `N#CCCNc1nonc1-c1nc2ccccc2n1CC(=O)c1ccc([N+](=O)[O-])cc1` [Example 57], the “Hoechst 33342 nuclear staining score” value is reported as 2 (score 2 relating to strong activity comprising more than 70% of the cells).

Same assay, conditions: PBLs, conc 0.01 μm
For `Nc1nonc1-c1nc2ccccc2n1CC(=O)c1cccc2ccccc12` [Example 41], the “Hoechst 33342 nuclear staining score” value was 0.
`COc1ccc(OCn2c(-c3nonc3N)nc3ccccc32)cc1` [Example 90] was tested, and the “Hoechst 33342 nuclear staining score” value was 0.
`N#CCCNc1nonc1-c1nc2ccccc2n1CC(=O)c1ccc([N+](=O)[O-])cc1` [Example 57] was tested, and the “Hoechst 33342 nuclear staining score” value was 0.

Same assay, conditions: PBLs, conc 0.1 μm
In the case of `Nc1nonc1-c1nc2ccccc2n1CC(=O)c1cccc2ccccc12` [Example 41], the “Hoechst 33342 nuclear staining score” value is reported as 0.
With `COc1ccc(OCn2c(-c3nonc3N)nc3ccccc32)cc1` [Example 90] the “Hoechst 33342 nuclear staining score” value was 0.
`N#CCCNc1nonc1-c1nc2ccccc2n1CC(=O)c1ccc([N+](=O)[O-])cc1` [Example 57] was tested, and the “Hoechst 33342 nuclear staining score” value was 0.

Same assay, conditions: PBLs, conc 1 μm
For `Nc1nonc1-c1nc2ccccc2n1CC(=O)c1cccc2ccccc12` [Example 41], the “Hoechst 33342 nuclear staining score” value was 1 (1 relating to weak activity comprising less than 70% of the cells).
With `COc1ccc(OCn2c(-c3nonc3N)nc3ccccc32)cc1` [Example 90] the “Hoechst 33342 nuclear staining score” value was 0.
With `N#CCCNc1nonc1-c1nc2ccccc2n1CC(=O)c1ccc([N+](=O)[O-])cc1` [Example 57] the “Hoechst 33342 nuclear staining score” value was 0.

The compounds below were run on HeLa (assay: MTS proliferation assay, HeLa). Details: 72 h incubation, read-out: MTS proliferation assay IC 50 HeLa.
Format: cell-based, human
Outline: (§1)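 Cells were seeded 24 h before treatment and exposed to compound at 10, 3, 1 and 0.3 μM final for 72 h at 37 °C, 7.5% CO2 in RPMI-1640 with 5% or 10% FCS. Viability was read by MTS reagent (3 h) as absorbance at 492 nm.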
Work on `Nc1nonc1-c1nc2ccccc2n1CC(=O)c1cccc2ccccc12` [Example 41] yielded an IC50 of 0.1 to 1 µM.
`COc1ccc(OCn2c(-c3nonc3N)nc3ccccc32)cc1` [Example 90] was tested, and the IC50 was 0.1 to 1 µM.
Compound `N#CCCNc1nonc1-c1nc2ccccc2n1CC(=O)c1ccc([N+](=O)[O-])cc1` [Example 57] has an IC50 of 0.1 to 1 µM.

The compounds below were run on HT1080 (assay: MTS proliferation assay, HT1080). Details: HT1080, 72 h incubation; read-out: MTS proliferation assay IC 50 HT1080.
Format: cell-based, human
Outline: as §1
Compound `Nc1nonc1-c1nc2ccccc2n1CC(=O)c1cccc2ccccc12` [Example 41] has an IC50 of 0.1 to 1 µM.
Work on `COc1ccc(OCn2c(-c3nonc3N)nc3ccccc32)cc1` [Example 90] yielded an IC50 of 0.1 to 1 µM.
For `N#CCCNc1nonc1-c1nc2ccccc2n1CC(=O)c1ccc([N+](=O)[O-])cc1` [Example 57], the IC50 was 0.1 to 1 µM.

These compounds were tested on Jily (assay: MTS proliferation assay, Jily). Details: 72 h incubation, read-out: MTS proliferation assay IC 50 Jily.
Format: cell-based
Outline: (§2)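 Cells in RPMI-1640 with 5% or 10% FCS, 2-mercaptoethanol and glutamine were seeded 24 h before treatment with compound at final 10, 3, 1 and 0.3 μM. After 72 h at 37° C and 7.5% CO2, MTS reagent was added for 3 h and absorbance read at 492 nm.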
With `Nc1nonc1-c1nc2ccccc2n1CC(=O)c1cccc2ccccc12` [Example 41] the IC50 was 0.1 to 1 µM.
For `COc1ccc(OCn2c(-c3nonc3N)nc3ccccc32)cc1` [Example 90], the IC50 was 0.1 to 1 µM.
Work on `N#CCCNc1nonc1-c1nc2ccccc2n1CC(=O)c1ccc([N+](=O)[O-])cc1` [Example 57] yielded an IC50 of 0.01 to 0.1 µM.

The compounds below were run on Jurkat (assay: MTS proliferation assay, Jurkat). Details: 72 h incubation, read-out: MTS proliferation assay IC 50 Jurkat.
Format: cell-based, human
Outline: as §1
Compound `Nc1nonc1-c1nc2ccccc2n1CC(=O)c1cccc2ccccc12` [Example 41] has an IC50 of 0.1 to 1 µM.
`COc1ccc(OCn2c(-c3nonc3N)nc3ccccc32)cc1` [Example 90] was tested, and the IC50 was 0.1 to 1 µM.
`N#CCCNc1nonc1-c1nc2ccccc2n1CC(=O)c1ccc([N+](=O)[O-])cc1` [Example 57] gave an IC50 of 0.01 to 0.1 µM.

The compounds below were run on MRC5 (assay: MTS proliferation assay, MRC5). Details: MRC5, 72 h incubation; read-out: MTS proliferation assay IC 50 MRC5.
Format: cell-based
Outline: as §2
With `Nc1nonc1-c1nc2ccccc2n1CC(=O)c1cccc2ccccc12` [Example 41] the IC50 was 0.1 to 1 µM.
`COc1ccc(OCn2c(-c3nonc3N)nc3ccccc32)cc1` [Example 90] gave an IC50 of 0.1 to 1 µM.
`N#CCCNc1nonc1-c1nc2ccccc2n1CC(=O)c1ccc([N+](=O)[O-])cc1` [Example 57] was tested, and the IC50 was 0.1 to 1 µM.
